This test addresses T1, Human MTHFD2 (Homo sapiens, UniProt P13995).
T1 construct: residues 36-350 in Uniport ID P13995; His6 (N); made in house; host or cells: E. coli
T1 sequence (P13995 36-350): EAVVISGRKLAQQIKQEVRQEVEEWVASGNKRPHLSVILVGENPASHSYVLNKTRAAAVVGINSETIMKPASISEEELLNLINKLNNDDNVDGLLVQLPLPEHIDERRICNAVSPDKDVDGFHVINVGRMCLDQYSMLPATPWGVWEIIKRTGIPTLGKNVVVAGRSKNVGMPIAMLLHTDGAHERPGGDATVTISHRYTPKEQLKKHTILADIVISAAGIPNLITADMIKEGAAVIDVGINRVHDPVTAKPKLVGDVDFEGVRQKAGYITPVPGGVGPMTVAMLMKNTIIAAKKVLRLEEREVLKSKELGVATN
Put plainly: MTHFD2 Activity Assay (dehydrogenase activity, diaphorase/resazurin coupled fluorescence). Conditions: inhibitory activity (IC50 and/or binding constant); 0.2 nM MTHFD2, 11 concentrations. Format: biochemical. A digest of the protocol:
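Steps: compound + 0.2 nM enzyme, 15 min, pH 8.0 Hepes buffer; add 70 μM CH2-THF, 1 mM NAD+, 100 μM resazurin, diaphorase; 30 min; quench with EDTA; read fluorescence. Data normalized to DMSO (100%) and no-enzyme (0%) wells.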
A general note: Alamar Blue is a resazurin reagent that responds to reducing activity.
Usually IC50 stands for the concentration at which inhibition is half-maximal. `Cn1c(Nc2ccccc2C#N)nc2c1c(=O)n(Cc1ccc(Cl)c(Cl)c1)c(=O)n2C` [Example 142, 2-(1-(3,4-dichlorobenzyl)-3,7-dimethyl-2,6-dioxo-2,3,6,7-tetrahydro-1H-purin-8-ylamino)benzonitrile]: the half-maximal inhibitory concentration (IC50) was 1000 to 5000 nM.

Take `Cn1c(-n2ncnc2N)nc2c1c(=O)n(Cc1ccc(Cl)c(Cl)c1)c(=O)n2C` [Example 143, 8-(5-amino-1H-1,2,4-triazol-1-yl)-1-(3,4-dichlorobenzyl)-3,7-dimethyl-1H-purine-2,6(3H,7H)-dione]: the half-maximal inhibitory concentration (IC50) was in the range of 1000 to 5000 nM.

In turn, `Cn1c(NC2CC(F)(F)C2)nc2c1c(=O)n(Cc1ccc(C(F)(F)F)cc1)c(=O)n2C` [Example 145, 8-(3,3-difluorocyclobutylamino)-3,7-dimethyl-1-(4-(trifluoromethyl)benzyl)-1H-purine-2,6(3H,7H)-dione] showed a concentration for half-maximal inhibition (IC50) greater than 10000 nM.

Turning to `Cn1c(Nc2ccccn2)nc2c1c(=O)n(Cc1ccc(Cl)c(Cl)c1)c(=O)n2C` [Example 146, 1-(3,4-dichlorobenzyl)-3,7-dimethyl-8-(pyridin-2-ylamino)-1H-purine-2,6(3H,7H)-dione], the IC50 lay in the range of 10 to 1000 nM.

Compound `Cn1c(NC2(C(=O)O)CC2)nc2c1c(=O)n(Cc1ccc(Cl)c(Cl)c1)c(=O)n2C` [Example 147, 1-(1-(3,4-dichlorobenzyl)-3,7-dimethyl-2,6-dioxo-2,3,6,7-tetrahydro-1H-purin-8-ylamino)cyclopropanecarboxylic acid] returned a concentration for half-maximal inhibition (IC50) of 10 to 1000 nM.

As for `Cn1c(NC2(C(=O)O)CCCC2)nc2c1c(=O)n(Cc1ccc(Cl)c(Cl)c1)c(=O)n2C` [Example 148, 1-(1-(3,4-dichlorobenzyl)-3,7-dimethyl-2,6-dioxo-2,3,6,7-tetrahydro-1H-purin-8-ylamino)cyclopentanecarboxylic acid], the IC50 lay in the range of 10 to 1000 nM.

Turning to `Cn1c(NC2(C(=O)O)CCCC2)nc2c1c(=O)n(Cc1ccc(C(F)(F)F)cc1)c(=O)n2C` [Example 149, 1-(3,7-dimethyl-2,6-dioxo-1-(4-(trifluoromethyl)benzyl)-2,3,6,7-tetrahydro-1H-purin-8-ylamino)cyclopentanecarboxylic acid], the half-maximal inhibitory concentration (IC50) was greater than 10000 nM.

Compound `Cn1c(Nc2cccc(N)n2)nc2c1c(=O)n(Cc1ccc(Cl)c(Cl)c1)c(=O)n2C` [Example 150, 8-(6-aminopyridin-2-ylamino)-1-(3,4-dichlorobenzyl)-3,7-dimethyl-1H-purine-2,6(3H,7H)-dione] registered an IC50 of 10 to 1000 nM.

As for `Cn1c(NC(C(=O)O)C2CCCCC2)nc2c1c(=O)n(Cc1ccc(C(F)(F)F)cc1)c(=O)n2C` (stereo not shown) [Example 151, 2-cyclohexyl-2-((3,7-dimethyl-2,6-dioxo-1-(4-(trifluoromethyl)benzyl)-2,3,6,7-tetrahydro-1H-purin-8-yl)amino)acetic acid], the IC50 was greater than 10000 nM.

Consider `Cn1cnc2c1c(=O)n(Cc1ccc(Cl)c(Cl)c1)c(=O)n2C` [Example 152, 1-(3,4-dichlorobenzyl)-3,7-dimethyl-1H-purine-2,6(3H,7H)-dione], for which the IC50 fell in the range of 1000 to 5000 nM.

In turn, `Cn1c(N)nc2c1c(=O)n(Cc1ccc(Cl)c(Cl)c1)c(=O)n2C` [Example 153, 8-amino-1-(3,4-dichlorobenzyl)-3,7-dimethyl-1H-purine-2,6(3H,7H)-dione] yielded an IC50 of 5000 to 10000 nM.

On to `COC(=O)c1ccc(Nc2nc3c(c(=O)n(Cc4ccc(Cl)c(Cl)c4)c(=O)n3C)n2C)cc1` [Example 154, Methyl 4-(1-(3,4-dichlorobenzyl)-3,7-dimethyl-2,6-dioxo-2,3,6,7-tetrahydro-1H-purin-8-ylamino)benzoate], for which the half-inhibitory concentration (IC50) fell in the range of 1000 to 5000 nM.

`CN(C)CCc1nc2c(c(=O)n(Cc3ccc(Cl)c(Cl)c3)c(=O)n2C)n1C` [Example 157, 1-(3,4-dichlorobenzyl)-8-(2-(dimethylamino)ethyl)-3,7-dimethyl-1H-purine-2,6(3H,7H)-dione] returned an IC50 of 1000 to 5000 nM.

Compound `Cn1c(CCO)nc2c1c(=O)n(Cc1ccc(Cl)c(Cl)c1)c(=O)n2C` [Example 158, 1-(3,4-dichlorobenzyl)-8-(2-hydroxyethyl)-3,7-dimethyl-1H-purine-2,6(3H,7H)-dione] came in with an IC50 of 10 to 1000 nM.

In turn, `Cn1c(CCN2CCOCC2)nc2c1c(=O)n(Cc1ccc(Cl)c(Cl)c1)c(=O)n2C` [Example 159, 1-(3,4-dichlorobenzyl)-3,7-dimethyl-8-(2-morpholinoethyl)-1H-purine-2,6(3H,7H)-dione] had an IC50 of 10 to 1000 nM.

`C=Cc1nc2c(c(=O)n(Cc3ccc(Cl)c(Cl)c3)c(=O)n2C)n1C` [Example 160, 1-(3,4-dichlorobenzyl)-3,7-dimethyl-8-vinyl-1H-purine-2,6(3H,7H)-dione] registered a half-inhibitory concentration (IC50) of 1000 to 5000 nM.

Take `COC(=O)c1nc2c(c(=O)n(Cc3ccc(Cl)c(Cl)c3)c(=O)n2C)n1C` [Example 161, Methyl 1-(3,4-dichlorobenzyl)-3,7-dimethyl-2,6-dioxo-2,3,6,7-tetrahydro-1H-purine-8-carboxylate]: the IC50 was in the range of 1000 to 5000 nM.

`CCOC(=O)Cc1nc2c(c(=O)n(Cc3ccc(Cl)c(Cl)c3)c(=O)n2C)n1C` [Example 162, ethyl 2-(1-(3,4-dichlorobenzyl)-3,7-dimethyl-2,6-dioxo-2,3,6,7-tetrahydro-1H-purin-8-yl)acetate] had a 50% inhibitory concentration (IC50) of 5000 to 10000 nM.

For the compound `COC(=O)c1cc(Cn2c(=O)c3c(nc(NCCCO)n3C)n(C)c2=O)ccc1Cl` [Example 165, Methyl 2-chloro-5-({8-[(3-hydroxypropyl)amino]-3,7-dimethyl-2,6-dioxo-2,3,6,7-tetrahydro-1H-purin-1-yl}methyl)benzoate], the IC50 was 1000 to 5000 nM.

Consider `Cn1c(NCCCO)nc2c1c(=O)n(Cc1ccc(Cl)c(CO)c1)c(=O)n2C` [Example 166, 1-{[4-chloro-3-(hydroxymethyl)phenyl]methyl}-8-[(3-hydroxypropyl)amino]-3,7-dimethyl-2,3,6,7-tetrahydro-1H-purine-2,6-dione], for which the IC50 was greater than 10000 nM.

`Cn1c(NCCCO)nc2ncn(Cc3ccc(Cl)c(Cl)c3)c(=O)c21` [Example 167, 1-[(3,4-dichlorophenyl)methyl]-8-[(3-hydroxypropyl)amino]-7-methyl-6,7-dihydro-1H-purin-6-one] showed a half-inhibitory concentration (IC50) greater than 10000 nM.

`C[C@@H](Nc1nc2c(c(=O)n(Cc3ccc(Cl)c(Cl)c3)c(=O)n2C)n1C)C(=O)O` [Example 169, (R)-2-(1-(3,4-dichlorobenzyl)-3,7-dimethyl-2,6-dioxo-2,3,6,7-tetrahydro-1H-purin-8-ylamino)propanoic acid] had an IC50 of 10 to 1000 nM.

`Cn1c(Nc2ccncc2)nc2c1c(=O)n(Cc1cc3ccccc3[nH]1)c(=O)n2C` [Example 174, 1-((1H-indol-2-yl)methyl)-3,7-dimethyl-8-(pyridin-4-ylamino)-1H-purine-2,6(3H,7H)-dione] gave a half-inhibitory concentration (IC50) of 10 to 1000 nM.

In turn, `Cn1c(Nc2ccncc2)nc2c1c(=O)n(Cc1cc3cc(Cl)ccc3[nH]1)c(=O)n2C` [Example 176, 1-((5-chloro-1H-indol-2-yl)methyl)-3,7-dimethyl-8-(pyridin-4-ylamino)-1H-purine-2,6(3H,7H)-dione] displayed an IC50 of 10 to 1000 nM.

For `Cc1ccc2[nH]c(Cn3c(=O)c4c(nc(Nc5ccncc5)n4C)n(C)c3=O)cc2c1` [Example 181, 3,7-dimethyl-1-((5-methyl-1H-indol-2-yl)methyl)-8-(pyridin-4-ylamino)-1H-purine-2,6(3H,7H)-dione], the IC50 fell in the range of 10 to 1000 nM.

(Values after patent publication US12187728B2 (Raze Therapeutics, Inc., priority 2015, dated 2025).)
